PMC6287304 (Antiviral Chemistry & Chemotherapy, 2018)

What was measured:
Vaccinia virus = assay: microbe, parasite or virus in culture; assay type: cell-based; settings: Orthopoxvirus vaccinia, HEL, read-out: Antiviral activity EC50 Vaccinia virus
HSV = assay: Antiviral activity against HSV; assay type: cell-based, herpes simplex virus; settings: HEL, read-out: EC50 values, replication of HSV-1, HSV-2 and TK-HSV-1 (range)
herpesviruses = assay: organism not typed; assay type: cell-based; settings: for EC50: HEL, read-out: EC50 against VZV, HCMV, HSV-1, HSV-2, and Vaccinia virus (range)
HEL cells = assay: Cytotoxicity, alteration of cell morphology; assay type: cell-based, human
[1] = Cytostatic activity, inhibition of cell growth; assay type: cell-based, human; settings: human, HEL cells, Cytotoxicity Cell growth (CC50), Table 3

Compound	EC50 (Vaccinia virus) [µM]	Cytotoxicity Cell morphology (MCC) (HEL cells; Table 1) [μM]	Cytotoxicity Cell morphology (MCC) (HEL cells; Table 2) [μM]	also measured
O=c1[nH]c(=O)c2ncn(CC(CO)OCP(=O)(O)O)c2[nH]1 (racemic) [Compound 5, (RS)-(((1–(2,6-Dioxo-1,2,3,6-tetrahydro-9H-purin-9-yl)-3-hydroxypropan-2-yl)oxy)methyl)phosphonic acid]	39 ± 27	≥300	>100	EC50 (HSV): 16 to 39 µM; anti-herpesvirus activity (in words) (herpesviruses): able to inhibit the replication of herpesviruses; EC50 (herpesviruses): 17 to 43 µM
Nc1nc2c(ncn2COCCO)c(=O)[nH]1 [Acyclovir, acyclovir, reference compound]	> 250	–	>250	–
Nc1ccn(C[C@@H](CO)OCP(=O)(O)O)c(=O)n1 [Cidofovir, cidofovir]	–	–	–	CC50 at 3 days [1]: 170 ± 61 µM
O=c1[nH]c(=O)c2ncn(C[C@@H](CO)OCP(=O)(O)O)c2[nH]1 [Compound 6, (S)-(((1–(2,6-Dioxo-1,2,3,6-tetrahydro-9H-purin-9-yl)-3-hydroxypropan-2-yl)oxy)methyl) phosphonic acid]	39 ± 27	>300	>100	EC50 (HSV): 16 to 39 µM; anti-herpesvirus activity (in words) (herpesviruses): able to inhibit the replication of herpesviruses; EC50 (herpesviruses): 17 to 43 µM
O=c1[nH]c(=O)c2ncn(C[C@H](CF)OCP(=O)(O)O)c2[nH]1 [Compound 7, (R)-(((1–(2,6-Dioxo-1,2,3,6-tetrahydro-9H-purin-9-yl)-3-fluoropropan-2-yl)oxy)methyl)phosphonic acid]	> 313	>313	–	–
O=c1[nH]c(=O)c2ncn(C[C@@H](CF)OCP(=O)(O)O)c2[nH]1 [Compound 8, (S)-(((1–(2,6-Dioxo-1,2,3,6-tetrahydro-9H-purin-9-yl)-3-fluoropropan-2-yl)oxy)methyl)phosphonic acid]	> 329	>329	–	–
C[C@H](Cn1cnc2c(=O)[nH]c(=O)[nH]c21)OCP(=O)(O)O [Compound 9, (R)-(((1–(2,6-Dioxo-1,2,3,6-tetrahydro-9H-purin-9-yl)propan-2-yl)oxy)methyl)phosphonic acid]	> 100	>100	–	–
O=c1nc(NC2CC2)c2ncn(CCOCP(=O)(O)O)c2[nH]1 [Compound 17, ((2–(6-(Cyclopropylamino)-2-oxo-2,3-dihydro-9H-purin-9-yl)ethoxy)methyl)phosphonic acid]	> 100	–	–	activity in all assays (in words) (herpesviruses): completely inactive in all assays; Cytotoxicity Cell morphology (MCC) (HEL cells; Table 3): >100 μM
Nc1nc(O)c2ncn(COC(CO)CO)c2n1 [Ganciclovir, ganciclovir, reference compound]	> 100	–	>100	CC50 at 3 days [1]: ≥ 317 µM
